# Test results taken from US12233099B2, “Composition for promoting myogenesis, containing processed ginseng extract” (GREEN CROSS WELLBEING CORPORATION, priority 2018, dated 2025).
# Legend:
# Format in all cases: cell-based, mouse
# [1] = tested on: phosphorylated Smad2 (pSmad2); assay: Smad2 phosphorylation in myostatin-treated myotubes (Western blotting); details: myotubes treated with myostatin; extract 0, 10, 30, and 100 μg/ml
# Protocol: The myotubes differentiated by the same method as in Test Example 5-2 were treated with myostatin and the processed ginseng extract of Example 2 to secure cells, and the cells were subjected to Western blotting. The treatment concentrations of the processed ginseng extract of Example 2 was 0, 10, 30, and 100 μg/ml. A lysis buffer was added to the secured cells to lyse cells, and then centrifugation was used to secure proteins of the supernatant. The secured proteins of the supernatant were separated through sodium dodecyl sulfate polyacrylamide gel electrophoresis (SDS-PAGE) and transferred to a polyvinylidene fluoride (PVDF) membrane. The membrane was blocked by a blocking solution, treated with a primary antibody in order to determine the amounts of Smad2 and phosphorylated Smad2 (pSmad2), and then treated with a secondary antibody to the primary antibody. Then, enhanced chemiluminescence (ECL, Amersham) was used to examine protein expression.
# MyoD = MyoD expression in myostatin-treated myotubes (Western blotting); details: extract 30 μg/ml
# Protocol: (§1) The myotubes differentiated by the same method as in Test Example 5-2 were treated with myostatin and the processed ginseng extract of Example 2 to secure cells. The treatment concentrations of the processed ginseng extract of Example 2 was 30 μg/ml. The secured cells were subjected to Western blotting using antibodies corresponding to MyoD and MAFbx by the same method as in Test Example 6-1, and the results are shown in FIG. 8.
# MAFbx = MAFbx expression in myostatin-treated myotubes (Western blotting); details: extract 30 μg/ml
# Protocol: as §1
# [2] = tested on: myotubes differentiated from C2C12; assay: Myostatin-induced myoatrophy cell model (myotube breadth)
# Protocol: After myotubes were differentiated by the same method as in the induction of myotube differentiation of Test Example 1, the cells were added in DMEM not containing FBS, and cultured for 3 hours. After culturing, the cells were treated with the myogenesis inhibitor myostatin (MSTN) at different concentrations for 24 hours, and the change in breadth of myotubes was measured in order to investigate whether myoatrophy was induced. The change in breadth of myotubes was measured by the same method as in Test Example 4, and after the immunofluorescent staining, images of myotubes were observed using the fluorescent substance attached to MHC through a microscope, and the Image J program was used to determine the breadth of myotubes.
# To investigate the myoatrophy inhibitory effect of the processed ginseng extracts of the present invention, myoatrophy was induced by the same method as the construction method of myoatrophy animal cell models in Test Example 5-1, and then the change in myotube breadth was observed. The myotubes were treated with 0.4 μg/0 myostatin (MSTN) and 30 μg/0 the processed ginseng extract of Example 2 alone or in combination, and the myotubes not treated with myostatin and the processed ginseng extract of Example 2 were used as a control group.
substance,measurement,setting,value
"myostatin: myogenesis inhibitor protein of the TGF-β group, used to induce myotube atrophy",Smad2 phosphorylation (pSmad2),[1],increased
same,MyoD expression (compared with GAPDH),MyoD,reduction in MyoD expression
same,MAFbx expression (compared with GAPDH),MAFbx,increase in MAFbx expression
same,"myotube breadth compared with the control group, treatment alone",[2]; 30 μg/0 Example 2 extract or 0.4 μg/0 myostatin alone,reduced
same,myostatin concentration giving greatest reduction in breadth of myotubes,[2]; 24 hours,0.4 μg/0
same,breadth of myotubes compared with myotubes not treated with myostatin,[2]; myostatin at different concentrations for 24 hours,reduced in breadth of myotubes with the increase of the treatment concentration
